ChEMBL document CHEMBL4011630 (J Med Chem, 2017)
Where a SMILES comes first, the peptide text is derived from it. Bridges are numbered along the chain shown (N, C = ends). [ ]: non-standard residue; d: D form. hMet = CSCCC[C@H](N)C(=O)O

Key:
[1] = biological target: T1, Neuronal acetylcholine receptor; alpha3/beta4 (Rattus norvegicus, UniProt P04757+P12392); test: Antagonist activity at rat alpha3beta4 nACHR expressed in xenopous laevis oocyte assessed as inhibition of ACh induced channel current at -80 mV holding potential by two electrode voltage clamp method
T1 sequence (P04757 whole entry): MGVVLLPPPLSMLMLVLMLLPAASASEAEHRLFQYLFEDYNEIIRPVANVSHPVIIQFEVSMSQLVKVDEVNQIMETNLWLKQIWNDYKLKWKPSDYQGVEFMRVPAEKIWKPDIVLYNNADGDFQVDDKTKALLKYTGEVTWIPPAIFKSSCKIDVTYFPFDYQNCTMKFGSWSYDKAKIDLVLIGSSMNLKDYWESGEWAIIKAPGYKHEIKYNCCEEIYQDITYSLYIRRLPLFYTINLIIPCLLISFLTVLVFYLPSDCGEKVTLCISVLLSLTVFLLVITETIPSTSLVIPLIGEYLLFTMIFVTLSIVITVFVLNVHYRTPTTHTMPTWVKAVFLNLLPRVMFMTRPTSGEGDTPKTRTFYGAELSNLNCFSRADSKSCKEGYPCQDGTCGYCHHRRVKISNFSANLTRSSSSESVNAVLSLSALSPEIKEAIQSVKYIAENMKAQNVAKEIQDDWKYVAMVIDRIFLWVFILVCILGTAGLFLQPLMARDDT
T1 sequence (P12392 whole entry): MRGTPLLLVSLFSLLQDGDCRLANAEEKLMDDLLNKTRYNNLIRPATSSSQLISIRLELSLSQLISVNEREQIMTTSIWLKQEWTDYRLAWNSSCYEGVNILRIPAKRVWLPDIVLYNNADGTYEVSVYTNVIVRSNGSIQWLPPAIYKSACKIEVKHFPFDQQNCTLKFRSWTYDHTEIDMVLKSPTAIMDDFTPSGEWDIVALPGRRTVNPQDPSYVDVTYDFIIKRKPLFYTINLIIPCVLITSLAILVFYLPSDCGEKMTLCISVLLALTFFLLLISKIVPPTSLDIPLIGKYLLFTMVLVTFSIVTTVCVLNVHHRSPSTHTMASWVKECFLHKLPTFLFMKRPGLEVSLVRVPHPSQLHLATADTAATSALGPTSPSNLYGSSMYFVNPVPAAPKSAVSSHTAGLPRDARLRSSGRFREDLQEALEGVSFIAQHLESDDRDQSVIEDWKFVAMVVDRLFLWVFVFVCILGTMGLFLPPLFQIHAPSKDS

[2] = biological target: T2, Nicotinic acetylcholine receptor alpha6/alpha3/beta4 (Rattus norvegicus, UniProt P04757+P12392+P43143); test: Antagonist activity at rat alpha6/alpha3beta4 nACHR expressed in xenopous laevis oocyte assessed as inhibition of ACh induced channel current at -80 mV holding potential by two electrode voltage clamp method
T2 sequence (P04757 whole entry): as the sequence (P04757 whole entry) above
T2 sequence (P12392 whole entry): as the sequence (P12392 whole entry) above
T2 sequence (P43143 whole entry): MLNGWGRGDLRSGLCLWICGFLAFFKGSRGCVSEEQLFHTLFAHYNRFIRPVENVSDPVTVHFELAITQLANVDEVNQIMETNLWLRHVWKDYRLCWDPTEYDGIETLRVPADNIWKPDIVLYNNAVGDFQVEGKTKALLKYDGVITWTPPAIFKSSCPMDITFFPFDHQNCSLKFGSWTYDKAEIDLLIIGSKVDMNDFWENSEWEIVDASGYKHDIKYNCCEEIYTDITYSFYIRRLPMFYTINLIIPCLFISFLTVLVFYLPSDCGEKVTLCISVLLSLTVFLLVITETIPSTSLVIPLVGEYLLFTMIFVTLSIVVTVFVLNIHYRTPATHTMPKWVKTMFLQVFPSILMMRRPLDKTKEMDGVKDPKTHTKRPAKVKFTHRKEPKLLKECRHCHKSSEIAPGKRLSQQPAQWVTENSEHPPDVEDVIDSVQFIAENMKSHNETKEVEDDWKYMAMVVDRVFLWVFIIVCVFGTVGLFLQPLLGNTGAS

Rattus norvegicus [3] = organism: Rattus norvegicus; test: Selectivity ratio of IC50 for rat alpha6/alpha3beta4 nACHR expressed in xenopous laevis oocyte at -80 mV holding potential to IC50 for rat alpha3beta4 nACHR expressed in xenopous laevis oocyte at -80 mV holding potential
[4] = biological target: T2, Nicotinic acetylcholine receptor alpha6/alpha3/beta4; test: Antagonist activity at rat alpha6/alpha3beta4 nACHR expressed in xenopous laevis oocyte assessed as inhibition of ACh induced channel current at -70 mV holding potential by two electrode voltage clamp method
[5] = biological target: T1, Neuronal acetylcholine receptor; alpha3/beta4; test: Antagonist activity at rat alpha3beta4 nACHR expressed in xenopous laevis oocyte assessed as inhibition of ACh induced channel current at -70 mV holding potential by two electrode voltage clamp method
Rattus norvegicus [6] = organism: Rattus norvegicus; test: Selectivity ratio of IC50 for rat alpha6/alpha3beta4 nACHR expressed in xenopous laevis oocyte at -70 mV holding potential to IC50 for rat alpha3beta4 nACHR expressed in xenopous laevis oocyte at -70 mV holding potential
[7] = biological target: T1, Neuronal acetylcholine receptor; alpha3/beta4; test: Antagonist activity at rat alpha3beta4 nACHR expressed in xenopous laevis oocyte assessed as inhibition of ACh induced channel current after 5 mins at -70 mV holding potential by two electrode voltage clamp method
[8] = biological target: T2, Nicotinic acetylcholine receptor alpha6/alpha3/beta4; test: Antagonist activity at rat alpha6/alpha3beta4 nACHR expressed in xenopous laevis oocyte assessed as inhibition of ACh induced channel current after 5 mins at -70 mV holding potential by two electrode voltage clamp method
[9] = biological target: Neuronal acetylcholine receptor subunit alpha-7 (Rattus norvegicus, UniProt Q05941); test: Antagonist activity at rat alpha7 nACHR expressed in xenopous laevis oocyte assessed as inhibition of ACh induced channel current after 5 mins at -70 mV holding potential by two electrode voltage clamp method
Sequence of Neuronal acetylcholine receptor subunit alpha-7 (Q05941 whole entry): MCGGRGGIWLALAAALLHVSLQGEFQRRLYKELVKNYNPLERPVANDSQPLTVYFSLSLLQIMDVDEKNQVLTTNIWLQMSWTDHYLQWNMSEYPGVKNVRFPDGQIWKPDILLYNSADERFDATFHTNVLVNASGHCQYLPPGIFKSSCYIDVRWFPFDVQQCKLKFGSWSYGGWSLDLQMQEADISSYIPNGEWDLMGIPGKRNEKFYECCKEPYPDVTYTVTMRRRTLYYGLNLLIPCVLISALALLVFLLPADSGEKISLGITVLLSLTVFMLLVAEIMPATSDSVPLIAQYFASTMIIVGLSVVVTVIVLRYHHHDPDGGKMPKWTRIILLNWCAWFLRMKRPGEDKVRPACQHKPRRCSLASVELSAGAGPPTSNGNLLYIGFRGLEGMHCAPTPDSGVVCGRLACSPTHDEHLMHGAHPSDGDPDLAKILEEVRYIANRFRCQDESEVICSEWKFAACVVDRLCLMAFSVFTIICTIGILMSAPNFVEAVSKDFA

[10] = biological target: Nicotinic acetylcholine receptor alpha9/alpha10 (Rattus norvegicus, UniProt P43144+Q9JLB5); test: Antagonist activity at rat alpha9alpha10 nACHR expressed in xenopous laevis oocyte assessed as inhibition of ACh induced channel current after 5 mins at -70 mV holding potential by two electrode voltage clamp method
Sequence of Nicotinic acetylcholine receptor alpha9/alpha10 (P43144 whole entry): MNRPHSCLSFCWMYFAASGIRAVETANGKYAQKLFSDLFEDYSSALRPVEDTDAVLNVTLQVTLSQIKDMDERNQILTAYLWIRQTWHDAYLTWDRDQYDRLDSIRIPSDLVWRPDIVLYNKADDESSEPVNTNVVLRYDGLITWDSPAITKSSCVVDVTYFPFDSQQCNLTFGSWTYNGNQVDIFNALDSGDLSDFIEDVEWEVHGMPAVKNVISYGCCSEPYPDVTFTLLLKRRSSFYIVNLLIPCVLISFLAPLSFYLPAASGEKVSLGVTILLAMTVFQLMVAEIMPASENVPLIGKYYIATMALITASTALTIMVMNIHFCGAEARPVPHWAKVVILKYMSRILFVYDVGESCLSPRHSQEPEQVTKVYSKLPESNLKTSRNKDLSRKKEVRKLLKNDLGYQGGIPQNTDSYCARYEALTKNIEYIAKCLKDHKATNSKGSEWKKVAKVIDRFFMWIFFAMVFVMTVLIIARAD
Sequence of Nicotinic acetylcholine receptor alpha9/alpha10 (Q9JLB5 whole entry): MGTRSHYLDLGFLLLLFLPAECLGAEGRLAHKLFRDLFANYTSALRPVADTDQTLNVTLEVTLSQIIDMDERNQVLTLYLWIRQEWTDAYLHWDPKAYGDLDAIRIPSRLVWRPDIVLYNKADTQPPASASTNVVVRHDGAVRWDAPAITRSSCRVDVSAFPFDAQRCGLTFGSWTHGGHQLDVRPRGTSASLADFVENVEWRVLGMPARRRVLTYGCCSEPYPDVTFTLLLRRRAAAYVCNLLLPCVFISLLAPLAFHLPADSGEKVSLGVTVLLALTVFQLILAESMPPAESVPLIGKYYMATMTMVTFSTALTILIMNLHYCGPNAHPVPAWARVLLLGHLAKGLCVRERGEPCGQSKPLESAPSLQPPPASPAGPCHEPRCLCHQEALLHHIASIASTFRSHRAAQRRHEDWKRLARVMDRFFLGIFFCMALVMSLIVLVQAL

[11] = biological target: Neuronal acetylcholine receptor; alpha3/beta2 (Rattus norvegicus, UniProt P04757+P12390); test: Antagonist activity at rat alpha3beta2 nACHR expressed in xenopous laevis oocyte assessed as inhibition of ACh induced channel current after 5 mins at -70 mV holding potential by two electrode voltage clamp method
[12] = biological target: Neuronal acetylcholine receptor; alpha2/beta2 (Rattus norvegicus, UniProt P12389+P12390); test: Antagonist activity at rat alpha2beta2 nACHR expressed in xenopous laevis oocyte assessed as inhibition of ACh induced channel current after 5 mins at -70 mV holding potential by two electrode voltage clamp method
Sequence of Neuronal acetylcholine receptor; alpha2/beta2 (P12389 whole entry): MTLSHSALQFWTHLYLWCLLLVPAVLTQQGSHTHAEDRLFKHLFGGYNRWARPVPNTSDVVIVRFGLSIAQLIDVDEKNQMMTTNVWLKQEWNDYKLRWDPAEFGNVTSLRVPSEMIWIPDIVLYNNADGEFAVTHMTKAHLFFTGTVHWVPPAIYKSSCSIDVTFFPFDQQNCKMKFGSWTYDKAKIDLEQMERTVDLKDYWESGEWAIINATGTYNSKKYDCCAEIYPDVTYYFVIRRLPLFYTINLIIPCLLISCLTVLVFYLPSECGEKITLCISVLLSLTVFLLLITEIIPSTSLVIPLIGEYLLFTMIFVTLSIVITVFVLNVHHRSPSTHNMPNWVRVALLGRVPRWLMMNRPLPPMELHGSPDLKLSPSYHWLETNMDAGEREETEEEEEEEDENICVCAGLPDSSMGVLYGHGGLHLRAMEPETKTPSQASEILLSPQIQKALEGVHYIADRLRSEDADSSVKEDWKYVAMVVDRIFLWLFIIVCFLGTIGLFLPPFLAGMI
Sequence of Neuronal acetylcholine receptor; alpha2/beta2 (P12390 whole entry): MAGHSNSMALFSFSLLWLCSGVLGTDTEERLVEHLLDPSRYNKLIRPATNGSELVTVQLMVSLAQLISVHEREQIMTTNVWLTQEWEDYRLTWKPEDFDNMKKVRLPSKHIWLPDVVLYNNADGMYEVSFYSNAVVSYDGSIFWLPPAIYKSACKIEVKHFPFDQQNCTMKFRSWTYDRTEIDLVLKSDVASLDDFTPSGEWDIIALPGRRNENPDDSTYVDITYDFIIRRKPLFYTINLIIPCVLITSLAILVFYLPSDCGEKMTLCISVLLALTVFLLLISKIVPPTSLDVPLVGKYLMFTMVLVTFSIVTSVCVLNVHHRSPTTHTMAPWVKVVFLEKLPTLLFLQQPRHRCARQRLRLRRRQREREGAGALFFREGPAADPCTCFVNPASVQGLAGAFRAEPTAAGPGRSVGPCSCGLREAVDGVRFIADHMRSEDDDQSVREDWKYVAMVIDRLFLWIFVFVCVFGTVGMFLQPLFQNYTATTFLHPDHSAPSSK

[13] = biological target: Neuronal acetylcholine receptor; alpha2/beta4 (Rattus norvegicus, UniProt P12389+P12392); test: Antagonist activity at rat alpha2beta4 nACHR expressed in xenopous laevis oocyte assessed as inhibition of ACh induced channel current after 5 mins at -70 mV holding potential by two electrode voltage clamp method
[14] = biological target: Neuronal acetylcholine receptor; alpha4/beta2 (Rattus norvegicus, UniProt P09483+P12390); test: Antagonist activity at rat alpha4beta2 nACHR expressed in xenopous laevis oocyte assessed as inhibition of ACh induced channel current after 5 mins at -70 mV holding potential by two electrode voltage clamp method
[15] = biological target: Neuronal acetylcholine receptor; alpha4/beta4 (Rattus norvegicus, UniProt P09483+P12392); test: Antagonist activity at rat alpha4beta4 nACHR expressed in xenopous laevis oocyte assessed as inhibition of ACh induced channel current after 5 mins at -70 mV holding potential by two electrode voltage clamp method

| Structure (SMILES) | IC50 [7] [nM] | IC50 [8] [nM] | other results |
| --- | --- | --- | --- |
| CC[C@H](C)[C@@H]1NC(=O)[C@H](Cc2cnc[nH]2)NC(=O)[C@@H]2CCCN2C(=O)[C@H](C)NC(=O)[C@H](C)NC(=O)[C@H](C(C)C)NC(=O)[C@H](CC(N)=O)NC(=O)[C@@H]2CSSC[C@H](NC(=O)[C@@H](NC(=O)CN)CSSC[C@H](C(=O)O)NC1=O)C(=O)N[C@@H](CO)C(=O)N[C@@H](Cc1c[nH]cn1)C(=O)N1CCC[C@H]1C(=O)N[C@@H](C)C(=O)N2 | – | – | IC50 [1]: 370 nM; IC50 [2]: 5100 nM; Ratio IC50 (Rattus norvegicus [3]): 14 |
| CC(C)C[C@@H]1NC(=O)[C@H](C(C)C)NC(=O)[C@H](C)NC(=O)[C@@H]2CSSC[C@H](NC(=O)CN)C(=O)N[C@@H](CSSC[C@H](C(N)=O)NC(=O)[C@H](Cc3ccc(O)cc3)NC1=O)C(=O)N[C@@H](CO)C(=O)N[C@@H]([C@@H](C)O)C(=O)N1CCC[C@H]1C(=O)N1CCC[C@H]1C(=O)N2 | – | – | IC50 [4]: 1.54 nM; IC50 [5]: 27.7 nM; Ratio IC50 (Rattus norvegicus [6]): 0.056 |
| CC[C@H](C)[C@@H]1NC(=O)[C@H](Cc2cnc[nH]2)NC(=O)[C@@H]2CCCN2C(=O)[C@H](CC(N)=O)NC(=O)[C@H](CC(N)=O)NC(=O)[C@H](C(C)C)NC(=O)[C@H](CC(N)=O)NC(=O)[C@@H]2CSSC[C@H](NC(=O)[C@@H](NC(=O)CN)CSSC[C@H](C(=O)O)NC1=O)C(=O)N[C@@H](CO)C(=O)N[C@@H](Cc1c[nH]cn1)C(=O)N1CCC[C@H]1C(=O)N[C@@H](C)C(=O)N2 | – | – | IC50 [1]: 47.3 nM; IC50 [2]: 147 nM; Ratio IC50 (Rattus norvegicus [3]): 3.1 |
| CC(C)C[C@@H]1NC(=O)[C@H](C(C)C)NC(=O)[C@H](C)NC(=O)[C@@H]2CSSC[C@H](NC(=O)CN)C(=O)N[C@@H](CSSC[C@H](C(N)=O)NC(=O)[C@H](Cc3ccc(O)cc3)NC1=O)C(=O)N[C@@H](CO)C(=O)N[C@@H](C)C(=O)N[C@@H](CCCN)C(=O)N1CCC[C@H]1C(=O)N2 | 1200 | 58.1 | – |
| CC[C@H](C)[C@@H]1NC(=O)[C@@H]2CCCN2C(=O)[C@H](CO)NC(=O)[C@H](CCCSC)NC(=O)[C@H](C)NC(=O)[C@H](CO)NC(=O)[C@@H]2CSSC[C@H](NC(=O)[C@H](C)N)C(=O)N[C@@H](CSSC[C@@H](C(N)=O)NC1=O)C(=O)N[C@@H](CO)C(=O)N[C@@H](Cc1cnc[nH]1)C(=O)N1CCC[C@H]1C(=O)N[C@@H](C(C)C)C(=O)N2 (H-ACCSHPVCSA[hMet]SPIC-NH2; disulfide 2-8, 3-15) | 61.9 | 278 | – |
| CC[C@H](C)[C@@H]1NC(=O)[C@@H]2CCCN2C(=O)[C@H](CO)NC(=O)[C@H](CCCSC)NC(=O)[C@H](C)NC(=O)[C@H](CO)NC(=O)[C@@H]2CSSC[C@H](NC(=O)CN)C(=O)N[C@@H](CSSC[C@@H](C(N)=O)NC1=O)C(=O)N[C@@H](C)C(=O)N[C@@H](Cc1cnc[nH]1)C(=O)N1CCC[C@H]1C(=O)N[C@@H](C(C)C)C(=O)N2 (H-GCCAHPVCSA[hMet]SPIC-NH2; disulfide 2-8, 3-15) | 10.8 | 64.1 | – |
| CC[C@H](C)[C@@H]1NC(=O)[C@@H]2CCCN2C(=O)[C@H](CO)NC(=O)[C@H](CCCSC)NC(=O)[C@H](C)NC(=O)[C@H](CO)NC(=O)[C@@H]2CSSC[C@H](NC(=O)CN)C(=O)N[C@@H](CSSC[C@@H](C(N)=O)NC1=O)C(=O)N[C@@H](CO)C(=O)N[C@@H](C)C(=O)N1CCC[C@H]1C(=O)N[C@@H](C(C)C)C(=O)N2 (H-GCCSAPVCSA[hMet]SPIC-NH2; disulfide 2-8, 3-15) | > 10000 | > 10000 | – |
| CC[C@H](C)[C@@H]1NC(=O)[C@@H]2CCCN2C(=O)[C@H](CO)NC(=O)[C@H](CCCSC)NC(=O)[C@H](C)NC(=O)[C@H](CO)NC(=O)[C@@H]2CSSC[C@H](NC(=O)CN)C(=O)N[C@@H](CSSC[C@@H](C(N)=O)NC1=O)C(=O)N[C@@H](CO)C(=O)N[C@@H](Cc1cnc[nH]1)C(=O)N[C@@H](C)C(=O)N[C@@H](C(C)C)C(=O)N2 (H-GCCSHAVCSA[hMet]SPIC-NH2; disulfide 2-8, 3-15) | > 10000 | > 10000 | – |
| CC[C@H](C)[C@@H]1NC(=O)[C@@H]2CCCN2C(=O)[C@H](CO)NC(=O)[C@H](CCCSC)NC(=O)[C@H](C)NC(=O)[C@H](C)NC(=O)[C@@H]2CSSC[C@H](NC(=O)CN)C(=O)N[C@@H](CSSC[C@@H](C(N)=O)NC1=O)C(=O)N[C@@H](CO)C(=O)N[C@@H](Cc1cnc[nH]1)C(=O)N1CCC[C@H]1C(=O)N[C@@H](C(C)C)C(=O)N2 (H-GCCSHPVCAA[hMet]SPIC-NH2; disulfide 2-8, 3-15) | – | – | IC50 [9]: > 10000 nM; IC50 [10]: > 10000 nM; IC50 [11]: > 10000 nM; IC50 [12]: > 10000 nM; IC50 [13]: > 10000 nM; IC50 [14]: > 10000 nM; IC50 [15]: > 10000 nM |
| CC[C@H](C)[C@@H]1NC(=O)[C@H](C)NC(=O)[C@H](CO)NC(=O)[C@H](CCCSC)NC(=O)[C@H](C)NC(=O)[C@H](CO)NC(=O)[C@@H]2CSSC[C@H](NC(=O)CN)C(=O)N[C@@H](CSSC[C@@H](C(N)=O)NC1=O)C(=O)N[C@@H](CO)C(=O)N[C@@H](Cc1cnc[nH]1)C(=O)N1CCC[C@H]1C(=O)N[C@@H](C(C)C)C(=O)N2 (H-GCCSHPVCSA[hMet]SAIC-NH2; disulfide 2-8, 3-15) | > 10000 | > 10000 | – |
| CSCCC[C@@H]1NC(=O)[C@H](C)NC(=O)[C@H](CO)NC(=O)[C@@H]2CSSC[C@H](NC(=O)CN)C(=O)N[C@@H](CSSC[C@@H](C(N)=O)NC(=O)[C@H](C)NC(=O)[C@@H]3CCCN3C(=O)[C@H](CO)NC1=O)C(=O)N[C@@H](CO)C(=O)N[C@@H](Cc1cnc[nH]1)C(=O)N1CCC[C@H]1C(=O)N[C@@H](C(C)C)C(=O)N2 (H-GCCSHPVCSA[hMet]SPAC-NH2; disulfide 2-8, 3-15) | 16.1 | 45.8 | – |
| CSCCC[C@@H]1NC(=O)[C@H](C)NC(=O)[C@H](CO)NC(=O)[C@@H]2CSSC[C@H](NC(=O)CN)C(=O)N[C@@H](CSSC[C@@H](C(N)=O)NC(=O)[C@H](CC(=O)O)NC(=O)[C@@H]3CCCN3C(=O)[C@H](CO)NC1=O)C(=O)N[C@@H](CO)C(=O)N[C@@H](Cc1cnc[nH]1)C(=O)N1CCC[C@H]1C(=O)N[C@@H](C(C)C)C(=O)N2 (H-GCCSHPVCSA[hMet]SPDC-NH2; disulfide 2-8, 3-15) | 9.2 | 67.4 | – |
| CSCCC[C@@H]1NC(=O)[C@H](C)NC(=O)[C@H](CO)NC(=O)[C@@H]2CSSC[C@H](NC(=O)CN)C(=O)N[C@@H](CSSC[C@@H](C(N)=O)NC(=O)[C@H](CCCNC(=N)N)NC(=O)[C@@H]3CCCN3C(=O)[C@H](CO)NC1=O)C(=O)N[C@@H](CO)C(=O)N[C@@H](Cc1cnc[nH]1)C(=O)N1CCC[C@H]1C(=O)N[C@@H](C(C)C)C(=O)N2 (H-GCCSHPVCSA[hMet]SPRC-NH2; disulfide 2-8, 3-15) | 9.8 | 40.8 | – |
| CSCCC[C@@H]1NC(=O)[C@H](C)NC(=O)[C@H](CO)NC(=O)[C@@H]2CSSC[C@H](NC(=O)CN)C(=O)N[C@@H](CSSC[C@@H](C(N)=O)NC(=O)[C@H](Cc3ccc(O)cc3)NC(=O)[C@@H]3CCCN3C(=O)[C@H](CO)NC1=O)C(=O)N[C@@H](CO)C(=O)N[C@@H](Cc1cnc[nH]1)C(=O)N1CCC[C@H]1C(=O)N[C@@H](C(C)C)C(=O)N2 (H-GCCSHPVCSA[hMet]SPYC-NH2; disulfide 2-8, 3-15) | 10 | 38.7 | – |
| CC[C@H](C)[C@@H]1NC(=O)[C@H](CO)NC(=O)[C@@H]2CSSC[C@H](NC(=O)CN)C(=O)N[C@@H](CSSC[C@@H](C(N)=O)NC(=O)[C@H]([C@@H](C)CC)NC(=O)[C@@H]3CCCN3C(=O)[C@H](CO)NC(=O)[C@H](CCCSC)NC1=O)C(=O)N[C@@H](CO)C(=O)N[C@@H](Cc1cnc[nH]1)C(=O)N1CCC[C@H]1C(=O)N[C@@H](C(C)C)C(=O)N2 (H-GCCSHPVCSI[hMet]SPIC-NH2; disulfide 2-8, 3-15) | 74.9 | 50.4 | – |
| C[C@@H]1NC(=O)[C@H](Cc2ccc(O)cc2)NC(=O)[C@@H]2CSSC[C@H](NC(=O)CN)C(=O)N[C@@H](CSSC[C@@H](C(N)=O)NC(=O)[C@H](CC(=O)O)NC(=O)[C@@H]3CCCN3C(=O)[C@H](CC(N)=O)NC(=O)[C@H]([C@@H](C)O)NC1=O)C(=O)N[C@@H](CO)C(=O)N[C@@H](Cc1ccc(O)cc1)C(=O)N1CCC[C@H]1C(=O)N1CCC[C@H]1C(=O)N2 (H-GCCSYPPCYATNPDC-NH2; disulfide 2-8, 3-15) | 750 | – | – |
